According to publication PMC2248166, “Quantitative peptide binding motifs for 19 human and mouse MHC class I molecules derived using positional scanning combinatorial peptide libraries” (Immunome Research, 2008):
Where a SMILES comes first, the peptide text is derived from it.

Molecular target: HLA B*1503 (Homo sapiens, UniProt P01889, A329T/A93T/A95T/C349S/D201E/D98Y/E187L/E204Q/K202T/N87E/Q94N/R155S/R180L/S121R/S35A/V306I/V36M/Y140S/Y91S)
Assay: biochemical
Type: binding

SMILES	IC50 [nM]
CSCC[C@H](NC(=O)[C@H](CC(C)C)NC(=O)[C@H](CCSC)NC(=O)[C@@H](N)Cc1ccccc1)C(=O)N[C@@H](CCC(=O)O)C(=O)N[C@H](C(=O)N[C@@H](CCSC)C(=O)N[C@@H](Cc1ccccc1)C(=O)N[C@@H](Cc1ccccc1)C(=O)O)[C@@H](C)O [3102.1089] (H-FMLMETMFF-OH)	0.19
CC[C@H](C)[C@H](NC(=O)[C@@H](NC(=O)[C@@H](NC(=O)[C@H](C)NC(=O)[C@H](CCSC)NC(=O)[C@H](Cc1ccc(O)cc1)NC(=O)[C@H](C)NC(=O)[C@@H](N)CCCNC(=N)N)[C@@H](C)O)[C@@H](C)O)C(=O)N[C@@H](CC(C)C)C(=O)O [3102.1091] (H-RAYMATTIL-OH)	18
CSCC[C@H](NC(=O)[C@H](C)NC(=O)[C@H](CC(C)C)NC(=O)[C@H](CO)NC(=O)[C@H](CCCCN)NC(=O)[C@@H](N)CCSC)C(=O)N[C@H](C(=O)N[C@@H](C)C(=O)N[C@@H](Cc1ccccc1)C(=O)O)[C@@H](C)O [3102.1092] (H-MKSLAMTAF-OH)	0.18
CC[C@H](C)[C@H](N)C(=O)N[C@@H](CCSC)C(=O)N[C@@H](C)C(=O)N[C@@H](CC(C)C)C(=O)N[C@H](C(=O)N[C@H](C(=O)N[C@@H](CO)C(=O)N[C@H](C(=O)N[C@@H](Cc1ccccc1)C(=O)O)[C@@H](C)CC)C(C)C)[C@@H](C)CC [3102.1093] (H-IMALIVSIF-OH)	4.5
CC[C@H](C)[C@H](NC(=O)[C@@H](NC(=O)[C@@H]1CCCN1C(=O)[C@H](CCC(=O)O)NC(=O)[C@H](CO)NC(=O)[C@H](CO)NC(=O)[C@H](CCSC)NC(=O)[C@@H](N)Cc1ccc(O)cc1)[C@@H](C)CC)C(=O)N[C@@H](Cc1ccccc1)C(=O)O [3102.1094] (H-YMSSEPIIF-OH)	0.3
CC[C@H](C)[C@H](NC(=O)[C@@H](NC(=O)[C@H](CC(N)=O)NC(=O)[C@H](CCC(=O)O)NC(=O)[C@@H]1CCCN1C(=O)[C@H](CO)NC(=O)[C@H](C)NC(=O)[C@H](CCSC)NC(=O)[C@@H](N)Cc1ccccc1)C(C)C)C(=O)O [3102.1095] (H-FMASPENVI-OH)	6.4
CC[C@H](C)[C@H](NC(=O)[C@@H](NC(=O)CNC(=O)[C@H](CCC(=O)O)NC(=O)[C@@H]1CCCN1C(=O)[C@H](CCC(N)=O)NC(=O)[C@@H](N)CCCCN)C(C)C)C(=O)N[C@@H](CC(C)C)C(=O)N[C@@H](Cc1ccccc1)C(=O)O [3102.1100] (H-KQPEGVILF-OH)	3.7
C[C@@H](O)[C@H](NC(=O)[C@H](CO)NC(=O)CNC(=O)[C@H](CCCNC(=N)N)NC(=O)[C@H](CC(N)=O)NC(=O)CNC(=O)[C@@H](N)CO)C(=O)N[C@@H](CO)C(=O)N[C@@H](Cc1ccccc1)C(=O)O [3102.1101] (H-SGNRGSTSF-OH)	25
CC[C@H](C)[C@H](NC(=O)[C@H](CCSC)NC(=O)[C@H](CC(=O)O)NC(=O)[C@H](CC(N)=O)NC(=O)[C@@H](NC(=O)[C@H](CCSC)NC(=O)[C@H](CCC(N)=O)NC(=O)[C@@H](N)CCCNC(=N)N)C(C)C)C(=O)N[C@@H](Cc1ccccc1)C(=O)O [3102.1102] (H-RQMVNDMIF-OH)	1.3
N=C(N)NCCC[C@H](NC(=O)[C@H](CC(=O)O)NC(=O)[C@H](CCCCN)NC(=O)[C@H](CCC(=O)O)NC(=O)[C@H](Cc1ccccc1)NC(=O)[C@H](CCC(N)=O)NC(=O)[C@@H](N)CCCNC(=N)N)C(=O)N[C@@H](CO)C(=O)N[C@@H](Cc1ccccc1)C(=O)O [3102.1103] (H-RQFEKDRSF-OH)	0.14
CC[C@H](C)[C@H](N)C(=O)N[C@@H](CCC(N)=O)C(=O)N[C@H](C(=O)N[C@@H](CC(C)C)C(=O)N[C@@H](CC(N)=O)C(=O)NCC(=O)N[C@@H](CCCCN)C(=O)N[C@@H](Cc1c[nH]cn1)C(=O)N[C@@H](Cc1ccccc1)C(=O)O)[C@@H](C)O [3102.1105] (H-IQTLNGKHF-OH)	11
CC[C@H](C)[C@H](NC(=O)[C@@H](NC(=O)[C@H](CCC(=O)O)NC(=O)[C@H](CCC(=O)O)NC(=O)[C@H](CO)NC(=O)[C@H](CCSC)NC(=O)[C@@H](N)CC(C)C)[C@@H](C)O)C(=O)N[C@@H](CC(=O)O)C(=O)N[C@@H](Cc1ccccc1)C(=O)O [3102.1106] (H-LMSEETIDF-OH)	12
CC[C@H](C)[C@H](NC(=O)[C@@H](NC(=O)[C@H](CCC(=O)O)NC(=O)[C@H](Cc1ccccc1)NC(=O)[C@H](Cc1ccccc1)NC(=O)[C@H](CCCCN)NC(=O)[C@@H](N)CC(N)=O)C(C)C)C(=O)N[C@@H](Cc1ccccc1)C(=O)N[C@@H](Cc1ccccc1)C(=O)O [3102.1109] (H-NKFFEVIFF-OH)	19
CC(C)C[C@H](NC(=O)[C@H](Cc1ccc(O)cc1)NC(=O)[C@H](CCC(N)=O)NC(=O)[C@H](CO)NC(=O)[C@H](CCCNC(=N)N)NC(=O)[C@H](CC(N)=O)NC(=O)[C@H](CCC(N)=O)NC(=O)[C@@H](N)CCCNC(=N)N)C(=O)N[C@@H](Cc1ccccc1)C(=O)O [3102.1112] (H-RQNRSQYLF-OH)	0.14
CC[C@H](C)[C@H](NC(=O)CNC(=O)[C@H](CC(C)C)NC(=O)[C@H](CCSC)NC(=O)[C@H](CO)NC(=O)[C@@H](N)Cc1ccccc1)C(=O)N[C@@H](Cc1c[nH]c2ccccc12)C(=O)N[C@@H](Cc1ccccc1)C(=O)N[C@@H](Cc1ccccc1)C(=O)O [3102.1113] (H-FSMLGIWFF-OH)	28
CC(C)C[C@H](NC(=O)[C@H](Cc1ccccc1)NC(=O)[C@H](CO)NC(=O)[C@@H](N)CC(C)C)C(=O)N[C@@H](CO)C(=O)N[C@@H](CCCNC(=N)N)C(=O)N[C@H](C(=O)N[C@@H](Cc1ccccc1)C(=O)N[C@@H](Cc1ccccc1)C(=O)O)C(C)C [3102.1115] (H-LSFLSRVFF-OH)	0.33
CC[C@H](C)[C@H](NC(=O)[C@H](CO)NC(=O)[C@@H](NC(=O)[C@H](CCC(N)=O)NC(=O)[C@H](CO)NC(=O)[C@H](CC(N)=O)NC(=O)[C@H](Cc1ccccc1)NC(=O)[C@H](CCCCN)NC(=O)[C@@H](N)Cc1ccccc1)C(C)C)C(=O)O [3102.1116] (H-FKFNSQVSI-OH)	1.2
CC(C)C[C@H](NC(=O)[C@H](CO)NC(=O)[C@H](CS)NC(=O)[C@@H](NC(=O)[C@H](Cc1ccccc1)NC(=O)[C@H](CCC(N)=O)NC(=O)[C@@H](N)CO)[C@@H](C)O)C(=O)N[C@@H](C)C(=O)N[C@H](C(=O)O)C(C)C [3102.1117] (H-SQFTCSLAV-OH)	1.5
CC(C)[C@H](N)C(=O)N[C@@H](CCC(=O)O)C(=O)N[C@H](C(=O)N[C@@H](CCC(=O)O)C(=O)N1CCC[C@H]1C(=O)NCC(=O)N[C@@H](CO)C(=O)N[C@@H](CO)C(=O)N[C@@H](Cc1ccccc1)C(=O)O)C(C)C [3102.1119] (H-VEVEPGSSF-OH)	1.7
CC[C@H](C)[C@H](N)C(=O)N[C@@H](CCCCN)C(=O)N[C@@H](Cc1ccc(O)cc1)C(=O)N[C@@H](CCSC)C(=O)N[C@H](C(=O)NCC(=O)N[C@@H](CC(N)=O)C(=O)N[C@@H](Cc1ccccc1)C(=O)N[C@@H](CCSC)C(=O)O)[C@@H](C)CC [3102.1120] (H-IKYMIGNFM-OH)	2.2
CSCC[C@H](NC(=O)[C@H](CCCCN)NC(=O)[C@@H](N)CCCCN)C(=O)N[C@H](C(=O)N[C@@H](CS)C(=O)NCC(=O)N[C@@H](CCC(N)=O)C(=O)N1CCC[C@H]1C(=O)N[C@@H](CC(C)C)C(=O)O)[C@@H](C)O [3102.1121] (H-KKMTCGQPL-OH)	1.5
CC(C)[C@H](N)C(=O)N[C@@H](CCCCN)C(=O)N[C@H](C(=O)N[C@@H](CCCCN)C(=O)N[C@@H](CCC(=O)O)C(=O)N[C@@H](CCC(=O)O)C(=O)N[C@@H](CC(N)=O)C(=O)N[C@H](C(=O)N[C@@H](Cc1ccccc1)C(=O)O)[C@@H](C)O)C(C)C [3102.1122] (H-VKVKEENTF-OH)	0.42
CC(C)[C@H](NC(=O)[C@H](CCC(N)=O)NC(=O)[C@@H](N)CCCNC(=N)N)C(=O)N[C@H](C(=O)N[C@@H](CC(=O)O)C(=O)N[C@@H](Cc1ccccc1)C(=O)N[C@@H](Cc1ccccc1)C(=O)N[C@@H](CCCCN)C(=O)N[C@@H](Cc1ccccc1)C(=O)O)C(C)C [3102.1123] (H-RQVVDFFKF-OH)	0.34
CC(C)[C@H](NC(=O)[C@H](Cc1ccc(O)cc1)NC(=O)[C@H](CCC(N)=O)NC(=O)[C@@H](N)Cc1ccccc1)C(=O)N[C@@H](CO)C(=O)N[C@@H](Cc1ccc(O)cc1)C(=O)N[C@@H](CO)C(=O)N[C@@H](CC(N)=O)C(=O)N[C@@H](Cc1ccccc1)C(=O)O [3102.1128] (H-FQYVSYSNF-OH)	0.26
CC(C)C[C@H](NC(=O)[C@H](CO)NC(=O)[C@@H](NC(=O)[C@H](CCCNC(=N)N)NC(=O)[C@H](CO)NC(=O)[C@H](CC(C)C)NC(=O)[C@H](Cc1ccc(O)cc1)NC(=O)[C@H](CCC(N)=O)NC(=O)[C@@H](N)CO)C(C)C)C(=O)O [3102.1130] (H-SQYLSRVSL-OH)	0.24
CC(C)C[C@H](NC(=O)[C@@H](NC(=O)[C@H](CC(N)=O)NC(=O)[C@@H]1CCCN1C(=O)[C@@H]1CCCN1C(=O)[C@H](CO)NC(=O)[C@@H](NC(=O)[C@H](CO)NC(=O)[C@@H](N)CO)C(C)C)C(C)C)C(=O)O [3102.1131] (H-SSVSPPNVL-OH)	18
CC[C@H](C)[C@H](NC(=O)[C@H](CCC(N)=O)NC(=O)[C@H](CC(N)=O)NC(=O)[C@H](CC(=O)O)NC(=O)[C@H](CCCNC(=N)N)NC(=O)[C@H](C)NC(=O)[C@@H](N)Cc1ccccc1)C(=O)N[C@@H](CO)C(=O)N[C@@H](Cc1ccccc1)C(=O)O [3102.1132] (H-FARDNQISF-OH)	0.2
CC(C)[C@H](NC(=O)[C@H](Cc1c[nH]cn1)NC(=O)[C@H](CCC(N)=O)NC(=O)CNC(=O)[C@H](Cc1ccccc1)NC(=O)[C@H](CS)NC(=O)[C@H](CC(N)=O)NC(=O)[C@H](C)NC(=O)[C@H](C)N)C(=O)O [3102.1133] (H-AANCFGQHV-OH)	22
CC[C@H](C)[C@H](NC(=O)[C@@H]1CCCN1C(=O)CNC(=O)[C@H](Cc1ccccc1)NC(=O)[C@H](Cc1ccccc1)NC(=O)[C@@H](NC(=O)[C@H](CCCCN)NC(=O)[C@@H](N)CO)C(C)C)C(=O)N[C@@H](Cc1ccc(O)cc1)C(=O)O [3102.1134] (H-SKVFFGPIY-OH)	1
CC(C)C[C@H](NC(=O)[C@H](Cc1ccccc1)NC(=O)[C@@H]1CCCN1C(=O)[C@H](CCCNC(=N)N)NC(=O)[C@@H](NC(=O)[C@H](CC(C)C)NC(=O)[C@@H](N)CCCNC(=N)N)C(C)C)C(=O)N[C@H](C(=O)N[C@H](C(=O)O)C(C)C)C(C)C [3102.1135] (H-RLVRPFLVV-OH)	16
